Values quoted from earlier work as cited in US20090306094A1 (Bristol-Myers Squibb Company, priority 2006, published 2009).
Where a name gives a salt, the structure may show the parent alone. Read-outs that look alike come from different tables or passages of the source.

What was measured:
[1] = system: imatinib-resistant BCR-ABL mutants; conditions: number of mutants / number tested
[2] = system: imatinib-resistant BCR-ABL mutants
[3] = system: cells expressing imatinib-resistant BCR-ABL kinases
[4] = system: imatinib-resistant BCR-ABL mutants; remark: listed apart in the source
[5] = system: BCR-ABL expressing leukemic cells
BCR-ABL = target: T1, BCR-ABL (Homo sapiens, UniProt P00519)
T1 construct: BCR (N-terminal part of breakpoint cluster region protein, P11274); the other entry of the earlier key: BCR (P11274, Breakpoint cluster region protein)
T1 sequence (P00519 242-493 limits assumed): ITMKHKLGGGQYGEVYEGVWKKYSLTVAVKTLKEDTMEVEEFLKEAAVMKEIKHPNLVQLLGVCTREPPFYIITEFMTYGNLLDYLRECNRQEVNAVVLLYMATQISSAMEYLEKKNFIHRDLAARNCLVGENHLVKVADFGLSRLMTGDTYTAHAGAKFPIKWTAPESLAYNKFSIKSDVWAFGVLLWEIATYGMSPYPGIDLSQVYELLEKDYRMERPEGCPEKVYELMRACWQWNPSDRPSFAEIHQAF

[6] = system: leukemic versus normal hematopoietic cells
[7] = system: Crkl phosphorylation in primary CML patient cells; conditions: correlated with dephosphorylation of BCR-ABL

For `Cc1cn(-c2cc(NC(=O)c3ccc(C)c(Nc4nccc(-c5cccnc5)n4)c3)cc(C(F)(F)F)c2)cn1` [AMN107], the IC50 (wild-type BCR-ABL) is given as […] and the “imatinib-resistant BCR-ABL mutants against which significantly active” value [1] is given as 32/33.

For `CP(C)(=O)c1ccc(Nc2nc(C3CCCC3)nc3c2ncn3CCc2cccc(O)c2)cc1` [AP23464], the “inhibition of imatinib-resistant BCR-ABL mutants” value [2] is given as “inhibit imatinib-resistant BCR-ABL mutants”.

In the case of `COCCNCCOc1ccc(-n2cc(-c3cccc(OC)c3)c3c(N)ncnc32)cc1` [CGP76030], the “growth and survival of cells” value [3] is listed as “inhibit the growth and survival”.

For `Cc1ccc(NC(=O)c2ccc(CN3CC[C@H](N(C)C)C3)c(C(F)(F)F)c2)cc1Nc1nccc(-c2cncnc2)n1` [NS-187], the “inhibition of imatinib-resistant BCR-ABL mutants” value [4] is listed as “inhibit imatinib-resistant BCR-ABL mutants”.

For `Cc1cc(Nc2ncc3cc(-c4c(Cl)cccc4Cl)c(=O)n(C)c3n2)ccc1F` [PD180970], the apoptosis [5] is given as “induce apoptosis” and the “inhibition of BCR-ABL” value (BCR-ABL) is given as “inhibit BCR-ABL”.

For `COc1cc(Nc2c(C#N)cnc3cc(OCCCN4CCN(C)CC4)c(OC)cc23)c(Cl)cc1Cl` [SKI-606], the antiproliferative activity (CML cell) is given as “potent antiproliferative activity”.

For `Cc1ccc(NC(=O)c2ccc(CN3CCN(C)CC3)cc2)cc1Nc1nccc(-c2cccnc2)n1` [imatinib, imatinib mesylate], the “selectivity for leukemic versus normal hematopoietic cells” value [6] is given as “highly selective”, the “estimated 2-year incidence of resistance” value (CML patients; blastic phase) is given as 80% and the “estimated 2-year incidence of resistance” value (CML patients; chronic phase post-interferon-α failure) is given as 10%. For the same molecule, the Crkl phosphorylation [7] was “inhibited in a dose-dependent manner”.
